Test results: patent publication US8114886B2, “Pyridylmethylsulfone derivative” (Daiichi Sankyo Company, Limited, priority 2005, dated 2012)

Assays:
[1] = test system: β-amyloid protein (Aβ) secreted by E35 cells (H4 cells with APP751 gene); test: Screening system using E35 cells for inhibition of production/secretion of β-amyloid protein (sandwich ELISA of Aβ in culture medium); format: cell-based, human; conditions: Homo sapiens, 24 hours with compound, Aβ in culture supernatant by ELISA, read-out: Inhibitory Activity for Production of A(EC50)
Description: The activity of the compound inhibiting β-amyloid protein production was measured on E35 cells prepared by introducing APP751 gene, a gene of a human wild type β-amyloid protein precursor protein, to human glioma cells (H4 cells), by quantifying the amount of β-amyloid protein (Aβ) secreted to the culture medium by means of a sandwich type Enzyme-Linked Immunosorbent Assay (ELISA) method.
That is, E35 cells inoculated on a 96-well plate were cultured in an incubator at 37° C. which was maintained at equilibrium with 5% carbon dioxide, using Dulbecco's Modified Eagle's Medium containing inactivated 10% fetal bovine serum as the culture medium. After 24 hours from the inoculation, a test compound dissolved in a DMSO solution was added. The DMSO solution of the test compound was prepared at a concentration of 2000 times of the final concentration, such that the DMSO concentration in the culture medium would be 0.05%. After culturing for another 24 hours, the culture supernatant was recovered, and this was added to a 96-well plate for ELISA onto which a monoclonal antibody against Aβ, 25-1, was solid-phased. The plate was incubated at 4° C. for 16 to 20 hours. The plate was washed with phosphate buffer solution (pH 7.4), and then a biotinylated monoclonal antibody against Aβ, MA32-40, was added thereto. The plate was left to stand at 4° C. for 2 hours. The plate was washed again with phosphate buffer solution, and then alkaline phosphatase-conjugated streptavidin was added to conjugate streptavidin to biotin. Subsequently, the plate was washed with phosphate buffer solution. To this, Blue Phos (Kirkegaard & Perry Laboratories, Inc.) was added. After incubating the plate for an appropriate time, the reaction was terminated with an acid, and the absorbance for each well was measured. The amount of Aβ contained in the culture supernatant was determined from a calibration curve which was produced separately, and the amount was compared with that of control cells to which the compound was not added. Thus, the concentration at which 50% of the Aβ production is inhibited (EC50 value) was calculated. In addition, the 25-1 antibody and MA32-40 antibody used in ELISA were mouse monoclonal antibodies derived from the hybridoma cell clone lines, which were each produced and selected according to a standard method using Aβ25-35 and Aβ1-8 as antigens, respectively, and which specifically recognize their respective antigens. […]
The scores indicate ++++ for the case where EC50 was 5 nM or less; +++ for the case where EC50 was 5 to 50 nM; ++ for the case where EC50 was 50 to 500 nM; and + for the case where EC50 was 500 nM to 5 μM.

Row | Structure (SMILES) | melting point | EC50 [1]
1 | Cc1cc(S(=O)(=O)C(c2cnc(C(=O)NCCO)cc2C)c2cc(F)ccc2F)ccc1F (stereo not shown) [Example 71, 5-[(2,5-Difluorophenyl)[(4-fluoro-3-methylphenyl)sulfonyl]methyl]-N-(2-hydroxyethyl)-4-methylpyridine-2-carboxamide] |  | 5 to 50 nM
2 | Cc1cc(C(N)=O)ncc1C(c1cc(F)ccc1F)[S+]([O-])c1ccc(F)cc1 (stereo not shown) [Example 24, 5-[(2,5-Difluorophenyl) [(4-fluorophenyl)sulfinyl]methyl]-4-methylpyridine-2-carboxamide] |  | 5 to 50 nM
3 | Cc1cc(C(=O)N(C)C)ncc1C(c1cc(F)ccc1F)[S+]([O-])c1ccc(C(F)(F)F)nc1 (stereo not shown) [Example 28B, 5-[(2,5-difluorophenyl)[[6-(trifluoromethyl)pyridin-3-yl]sulfinyl]methyl]-N,N,4-trimethylpyridine-2-carboxamide] |  | 500 to 5000 nM
4 | Cc1cc(C(=O)N2CC(O)C2)ncc1C(c1cc(F)ccc1F)S(=O)(=O)c1ccc(F)cc1 (stereo not shown) [Example 88, 1-[[5-[(2,5-Difluorophenyl)[(4-fluorophenyl)sulfonyl]methyl]-4-methylpyridin-2-yl]carbonyl]azetidin-3-ol] | 219 to 221 °C | 
5 | Cc1cc(C(=O)NCCO)ncc1C(c1cc(F)ccc1F)S(=O)(=O)c1cc(F)cc(F)c1 (stereo not shown) [Example 100, 5-[(2,5-Difluorophenyl)[(3,5-difluorophenyl)sulfonyl]methyl]-N-(2-hydroxyethyl)-4-methylpyridine-2-carboxamide] | 82 to 84 °C | 
6 | CCOC(=O)c1cc(C)c(C(c2cc(F)ccc2F)S(=O)(=O)c2ccc(F)cc2)cn1 (stereo not shown) [Example 91, Diethyl 5-[(2,5-difluorophenyl)[(4-fluorophenyl)sulfonyl]methyl]-4-methylpyridine-2-carboxylic acid] | 151 to 153 °C | 
7 | Cc1cc(C(=O)NCO)ncc1C(c1c(F)ccc(F)c1F)S(=O)(=O)c1ccc(C(F)F)nc1 (stereo not shown) [Example 136, 5-[[[6-(Difluoromethyl)pyridin-3-yl]sulfonyl](2,3,6-trifluorophenyl)methyl]-N-(1-hydroxymethyl)-4-methylpyridine-2-carboxamide] | 181 to 183 °C | 
8 | Cc1cc(C(N)=O)ncc1C(c1c(F)ccc(F)c1F)[S+]([O-])c1ccc(F)cc1 (stereo not shown) [Example 38, 5-[[(4-Fluorophenyl)sulfinyl](2,3,6-trifluorophenyl)methyl]-4-methylpyridine-2-carboxamide] |  | 5 to 50 nM
9 | CNC(=O)c1cc(C)c(C(c2cc(F)ccc2F)[S+]([O-])c2ccc(F)cc2)cn1 (stereo not shown) [Example 21, 5-[(2,5-Difluorophenyl)[(4-fluorophenyl)sulfinyl]methyl]-N,4-dimethylpyridine-2-carboxamide] |  | 5 to 50 nM
10 | COc1ccc(S(=O)(=O)C(c2cnc(C(=O)O)cc2C)c2cc(F)ccc2F)cc1F (stereo not shown) [Example 46, 5-[(2,5-Difluorophenyl)[(3-fluoro-4-methoxyphenyl)sulfonyl]methyl]-4-methylpyridine-2-carboxylic acid] | 196 to 197 °C | 
11 | Cc1ccc(S(=O)(=O)C(c2cnc(C(=O)NCCO)cc2C)c2cc(F)ccc2F)cc1 (stereo not shown) [Example 63, 5-[(2,5-Difluorophenyl)[(4-methylphenyl)sulfonyl]methyl]-N-(2-hydroxyethyl)-4-methylpyridine-2-carboxamide] |  | ≤ 5 nM
12 | Cc1cc(C(N)=O)ncc1C(c1cc(F)ccc1F)S(=O)(=O)c1ccc(C(F)(F)F)nc1 (stereo not shown) [Example 32, 5-[(2,5-Difluorophenyl)[[6-(trifluoromethyl)pyridin-3-yl]sulfonyl]methyl]-4-methylpyridine-2-carboxamide] |  | 5 to 50 nM
13 | Cc1cc(C(=O)N(C)C)ncc1C(c1c(F)ccc(F)c1F)[S+]([O-])c1ccc(F)cc1 (stereo not shown) [Example 36B, 5-[[(4-fluorophenyl)sulfinyl](2,3,6-trifluorophenyl)methyl]-N,N,4-trimethylpyridine-2-carboxamide] |  | 500 to 5000 nM

Further lines, results first:

Row | melting point | EC50 [1] | Structure (SMILES)
14 | 200 to 201 °C |  | Cc1cc(C(N)=O)ncc1C(c1c(F)ccc(F)c1F)S(=O)(=O)c1ccc(F)c(F)c1 (stereo not shown) [Example 121, 5-[[(3,4-Difluorophenyl)sulfonyl](2,3,6-trifluorophenyl)methyl]-4-methylpyridine-2-carboxamide]
15 |  | ≤ 5 nM | Cc1cc(C(N)=O)ncc1C(c1cc(F)ccc1F)S(=O)(=O)c1ccc(F)cc1 (stereo not shown) [Example 15, 5-[(2,5-Difluorophenyl)[(4-fluorophenyl)sulfonyl]methyl]-4-methylpyridine-2-carboxamide]
16 | 237 to 240 °C |  | Cc1cc(C(N)=O)ncc1C(c1c(F)ccc(F)c1F)S(=O)(=O)c1ccc2ccoc2c1 (stereo not shown) [Example 126, 5-[(1-Benzofuran-6-ylsulfonyl)(2,3,6-trifluorophenyl)methyl]-4-methylpyridine-2-carboxamide]
17 |  | 5 to 50 nM | Cc1cc(C(=O)N(C)C)ncc1C(c1c(F)ccc(F)c1F)S(=O)(=O)c1ccc(F)cc1 (stereo not shown) [Example 36A, 5-[[(4-Fluorophenyl)sulfonyl](2,3,6-trifluorophenyl)methyl]-N,N,4-trimethylpyridine-2-carboxamide]
18 |  | 50 to 500 nM | Cc1cc(C(=O)NCCO)ncc1C(c1cc(F)ccc1F)S(=O)(=O)c1ccc(C(F)(F)F)cn1 (stereo not shown) [Example 55, 5-[(2,5-Difluorophenyl)[[5-(trifluoromethyl)pyridin-2-yl]sulfonyl]methyl]-N-(2-hydroxyethyl)-4-methylpyridine-2-carboxamide]
19 | 161 to 164 °C |  | Cc1cc(C(=S)N(C)C)ncc1C(c1cc(F)ccc1F)S(=O)(=O)c1ccc(F)cc1 (stereo not shown) [Example 92, 5-[(2,5-Difluorophenyl)[(4-fluorophenyl)sulfonyl]methyl]-N,N,4-trimethylpyridine-2-carbothioamide]
20 | 111 to 113 °C |  | CC(=O)OCNC(=O)c1cc(C)c(C(c2cc(F)ccc2F)S(=O)(=O)c2ccc(F)cc2)cn1 (stereo not shown) [Example 86, [[[5-[(2,5-Difluorophenyl)(4-fluorophenylsulfonyl)methyl]-4-methylpyridin-2-yl]carbonyl]amino]methyl acetate]
21 | 190 to 192 °C |  | Cc1cc(C(=O)NCO)ncc1C(c1c(F)ccc(F)c1F)S(=O)(=O)c1ccc(C(F)(F)F)cc1 (stereo not shown) [Example 129, N-(hydroxymethyl)-4-methyl-5-[[[4-(trifluoromethyl)phenyl]sulfonyl](2,3,6-trifluorophenyl)methyl]pyridine-2-carboxamide]
22 |  | ≤ 5 nM | Cc1cc(C(N)=O)ncc1C(c1c(F)ccc(F)c1F)S(=O)(=O)c1ccc(F)cc1 (stereo not shown) [Example 39, 5-[[(4-Fluorophenyl)sulfonyl](2,3,6-trifluorophenyl)methyl]-4-methylpyridine-2-carboxamide]
23 |  | ≤ 5 nM | Cc1cc(C(N)=O)ncc1C(c1c(F)ccc(F)c1F)S(=O)(=O)c1ccccc1 (stereo not shown) [Example 105, 4-Methyl-5-[(phenylsulfonyl)(2,3,6-trifluorophenyl)methyl]pyridine-2-carboxamide]
24 |  | ≤ 5 nM | Cc1cc(C(=O)NCCO)ncc1C(c1cc(F)ccc1F)S(=O)(=O)c1ccc(C(F)(F)F)nc1 (stereo not shown) [Example 30, 5-[(2,5-Difluorophenyl) [[6-(trifluoromethyl)pyridin-3-yl]sulfonyl]methyl]-N-(2-hydroxyethyl)-4-methylpyridine-2-carboxamide]
25 |  | ≤ 5 nM | Cc1cc(S(=O)(=O)C(c2cnc(C(=O)NCCO)cc2C)c2cc(F)ccc2F)ccc1Cl (stereo not shown) [Example 67, 5-[[(4-Chloro-3-methylphenyl)sulfonyl](2,5-difluorophenyl)methyl]-N-(2-hydroxyethyl)-4-methylpyridine-2-carboxamide]
26 |  | ≤ 5 nM | CC(=O)NCCNC(=O)c1cc(C)c(C(c2cc(F)ccc2F)S(=O)(=O)c2ccc(F)cc2)cn1 (stereo not shown) [Example 83, N-[2-(acetylamino)ethyl]-5-[(2,5-difluorophenyl)[(4-fluorophenyl)sulfonyl]methyl]-4-methylpyridine-2-carboxamide]
27 |  | 500 to 5000 nM | Cc1cc(C(=O)N(C)C)ncc1C(c1cc(F)ccc1F)S(=O)(=O)c1ccc(C(F)(F)F)nc1 (stereo not shown) [Example 28A, 5-[(2,5-Difluorophenyl) [[6-(trifluoromethyl)pyridin-3-yl]sulfonyl]methyl]-N,N,4-trimethylpyridine-2-carboxamide]
28 |  | 5 to 50 nM | Cc1cc(C(=O)NCCO)ncc1C(c1cc(F)ccc1F)S(=O)(=O)c1ccccc1 (stereo not shown) [Example 59, 5-[(2,5-Difluorophenyl)(phenylsulfonyl)methyl]-N-(2-hydroxyethyl)-4-methylpyridine-2-carboxamide]
